From patent US12011475B2, “Polypeptide, polypeptide fragment, derivative thereof, and applications thereof” (CHENGDU HUITAI BIOMEDICINE CO., LTD., priority 2017, dated 2024)
Square brackets hold non-standard residues; d marks the D form. Primed or numbered codes have the meaning given here. Ends that are not written are not given here. PEG2′ = not defined here

Tests used:
[1] = test system: Fibronectin, Collagen I and Collagen III; experiment: Western blot of extracellular matrix protein in lung tissue homogenate (Example 6); assay type: in vivo, rat; settings: vs bleomycin group, 2.5 mg/kg peptide intratracheal; for levels of Fibronectin, Collagen I and Collagen III proteins (grayscale value): p<0.05, FIG. 6; for intensities of the expression bands of Fibronectin, Collagen I and Collagen III in lung tissue: GAPDH internal reference, FIG. 5
Procedure: (§1) The rats were weighed before administration, intramuscularly injected with 65 mg/kg Zoletil anesthetic solution. After the rats entered the stage III anesthesia, the experimental rats were fixated in the lateral decubitus. Gavage needle size 12 was inserted into rat trachea through oral cavity along the glottis to instill with drug. The experimental animals were fed normally from the 1st day to the 7th day after intratracheal administration, and were weighed every day with feed and water ad libitum.
(§2) The rats in blank control group were received no treatment after anesthesia; the rats in model group (bleomycin) were intratracheally instilled with bleomycin (3 mg/kg); the rats in PBS control group were intratracheally instilled with an equal volume of sterile PBS buffer (0.01 M, pH=9.5); the rats in polypeptide control group were intratracheally instilled with 2.5 mg/kg of the polypeptide N2 (the solvent was 0.01 M, pH=9.5 PBS buffer); the rats in N2 treatment group were intratracheally instilled with 2.5 mg/kg of the polypeptide N2 and 3 mg/kg of bleomycin simultaneously, the rats in N3 treatment group were intratracheally instilled with 2.5 mg/kg of the polypeptide N3 and 3 mg/kg of bleomycin simultaneously.
The rat lung tissue of Example 2 was taken, and homogenized using RIPA lysate (100 mg of lung tissue corresponding to 1 mL of lysate), centrifuged and the supernatant was taken, and then the protein concentration was determined by BCA method. Equal amounts of protein samples were taken and Western blot experiment was performed using anti-GAPDH, anti-Fibronectin, anti-Collagen I and anti-Collagen III antibodies (the result is shown in FIG. 5).
The grayscale value of each band was detected and analyzed using Image pro plus 6.0 image analysis software (the result is shown in FIG. 6). […] The detection of grayscale value supported the above-mentioned description.

[2] = test system: rat with pulmonary fibrosis induced by bleomycin; experiment: Lung coefficient, bleomycin rat model (Examples 2-3); assay type: in vivo; settings: vs bleomycin group; 2.5 mg/kg peptide + 3 mg/kg bleomycin intratracheal, simultaneously; p<0.05; FIG. 1
Procedure: as §1, with “libitum. […]” for “libitum.”
The rats in Example 2 were weighed and sacrificed by anesthesia overdose. […] After the wet weight of the whole lung was weighted by the electronic balance, the lung coefficient was calculated according to the formula, lung coefficient=lung mass (mg)/body weight (g) (the result is shown in FIG. 1).

[3] = test system: rat with pulmonary fibrosis induced by bleomycin; experiment: HE staining and alveolitis score of rat lung tissue (Example 4); assay type: in vivo; settings: 2.5 mg/kg peptide + 3 mg/kg bleomycin intratracheal; for inflammatory pathology score (degree of alveolitis, grade 0 to 3): vs BLM group, p<0.01, FIG. 3; for pathological changes in lung tissue (HE staining): vs model group, FIG. 2
Procedure: as §1, §2
The lung tissue of the rats of Example 2 was taken, fixed with 4% paraformaldehyde and embedded in paraffin. The wax block embedded the lung tissue was sectioned along the largest cross section. Pathological changes in lung tissue were observed using hematoxylin-eosin (HE) staining. Pathological changes in lung tissue were observed under a light microscope (low magnification) at a magnification of 100 times (the result is shown in FIG. 2).
According to the method provided by Szapie, et al., the degree of alveolitis was graded according to the range of lesions and could be divided into 0 to 3 grades, corresponding to 0 to 3 points. The evaluation indexes for the degree of alveolitis are as follows: grade 0, no alveolitis; grade 1, mild alveolitis, manifested as a slight increase in alveolar septum, infiltration of monocytes, near the pleura or localized, with a lesion range of less than 20% without alveolar structural damage; grade 2, moderate alveolitis, the lesion ranges from 20% to 50%, relatively severe near the pleura; grade 3, severe alveolitis, diffusely distributed, the lesion range is more than 50%, with pulmonary parenchymal lesion occasionally.

[4] = test system: TGF-β/Smad signaling pathway; experiment: Western blot of Smad protein in lung tissue homogenate (Example 8); assay type: in vivo, rat; settings: vs bleomycin group, 2.5 mg/kg peptide intratracheal; for levels of p-Smad2 and p-Smad3 proteins (grayscale value): p<0.05, FIG. 9; for intensities of the expression bands of p-Smad2 and p-Smad3 in lung tissue: GAPDH internal reference, FIG. 8
Procedure: as §1, §2
The rat lung tissue of Example 2 was taken, and the tissue was homogenized using RIPA lysate (100 mg of lung tissue corresponding to 1 mL of lysate), centrifuged and the supernatant was taken, and then the protein concentration was determined by BCA method. Equal amounts of protein samples were taken and Western blot experiment was performed using anti-GAPDH, anti-p-Smad2 and anti-p-Smad3 antibodies (the result is shown in FIG. 8).
The grayscale value of each band was detected and analyzed using Image pro plus 6.0 image analysis software (the result is shown in FIG. 9). […] The detection of grayscale value supported the above-mentioned description.

[5] = test system: rat with pulmonary fibrosis induced by bleomycin; experiment: Hydroxyproline content in lung tissue homogenate, alkali hydrolysis kit (Example 7); assay type: in vivo; settings: vs bleomycin group; 2.5 mg/kg peptide intratracheal; p<0.05; FIG. 7
Procedure: as §1, with “libitum. […]” for “libitum.”
The rats of Example 2 were taken, and the hydroxyproline content in lung tissue homogenate was detected using Boster Hydroxyproline Alkali Hydrolysis Assay Kit (Cat. No. A030) (the result is shown in FIG. 7).

[6] = test system: rat with pulmonary fibrosis induced by bleomycin; experiment: Inflammatory cells in bronchoalveolar lavage fluid, Wright-Giemsa staining (Example 5); assay type: in vivo; settings: vs bleomycin group; 2.5 mg/kg peptide + 3 mg/kg bleomycin intratracheal; p<0.05; FIG. 4
Procedure: as §1, with “libitum. […]” for “libitum.”
Bronchoalveolar lavage fluid was collected, and […] by centrifugation. […] The counting method was: the number of macrophages, lymphocytes, and neutrophils was calculated according to the total number of inflammatory cells based on the respective proportion of macrophages, lymphocytes, and neutrophils in 100 intact cells (the result is shown in FIG. 4).

TGF-β signaling pathway = experiment: ctgf, Collagen I and Collagen III in lung tissue by RT-qPCR (Example 11); assay type: in vivo, rat; settings: vs model group; 6 mg/kg peptide + 3 mg/kg bleomycin intratracheal; 18S RNA reference; p<0.05; FIG. 11
Procedure: (§3) The rats were weighed before administration, intramuscular injection of Zoletil anesthetic solution, the dose was 65 mg/kg. After the rats entered the stage III anesthesia, the experimental rats were bond in the incline lateral decubitus. A size 12 gavage needle was inserted into rat trachea through oral cavity along the glottis to infuse the drug. The experimental animals were fed normally from the 1st day to the 14th day after intratracheal administration, and were weighed regularly every day without restriction of feed or drinking water. […]
The rat lung tissue in the model group, the control group and the N4 treatment group of Example 9 was taken. […] After obtaining cDNA using reverse transcription, fluorescence quantitative PCR (qPCR) kit (Applied Biosystems, Cat. No. 4319413E) was used to detect the expression levels of connective tissue growth factor ctgf (forward primer: 5′-[…]-3′, reverse primer: 5′-[…]-3′) downstream of the TGF-β pathway, Collagen I (forward primer: 5′-TGCCGATGTCGCTATCCA-3′, reverse primer: 5′-[…]-3′) and Collagen III (forward primer: 5′-[…]-3′, reverse primer: 5′-[…]-3′). […]

active TGF-β = experiment: Active TGF-β in lung tissue by ELISA (Examples 9-10); assay type: in vivo, rat; settings: vs model group; 6 mg/kg peptide + 3 mg/kg bleomycin intratracheal; p<0.05; FIG. 10
Procedure: as §3
The rat lung tissue in the model group, the control group and the N4 treatment group of Example 9 was taken, and homogenized using RIPA lysate (100 mg of lung tissue corresponding to 1 mL of lysate), centrifuged and the supernatant was taken, and then the protein concentration was determined by BCA method. Equal amounts of protein samples were taken and the active TGF-β content was measured by enzyme-linked immunosorbent assay ELISA (Promega, Cat. No. G7591) (the result is shown in FIG. 10), and one-way ANOVA was used for biostatistical analysis.

[7] = test system: rat with pulmonary fibrosis induced by bleomycin; experiment: Hydroxyproline content in lung tissue homogenate, acid hydrolysis (Example 12); assay type: in vivo; settings: vs model group; 6 mg/kg peptide + 3 mg/kg bleomycin intratracheal; p<0.05; FIG. 12
Procedure: The rats were weighed before administration, intramuscular injection of Zoletil anesthetic solution, the dose was 65 mg/kg. After the rats entered the stage III anesthesia, the experimental rats were bond in the incline lateral decubitus. A size 12 gavage needle was inserted into rat trachea through oral cavity along the glottis to infuse the drug. The experimental animals were fed normally from the 1st day to the 14th day after intratracheal administration, and were weighed regularly every day without restriction of feed or drinking water.
The rats in model group were intratracheally instilled with bleomycin (3 mg/kg); the rats in control group were intratracheally instilled with an equal volume of saline; the rats in treatment groups were intratracheally instilled with bleomycin (3 mg/kg) and corresponding therapeutic drug (6 mg/kg) simultaneously.
The lung tissue in the model group, the control group and the N4 treatment group of Example 9 was taken, and the hydroxyproline content in the lung tissue homogenate was detected using BioVision Hydroxyproline Acid Hydrolysis Assay Kit (Cat. No. K555-100) (the result is shown in FIG. 12), and one-way ANOVA was used for biostatistical analysis.

Substance	levels of Fibronectin, Collagen I and Collagen III proteins (grayscale value) [1]	intensities of the expression bands of Fibronectin, Collagen I and Collagen III in lung tissue [1]	lung coefficients of the left lung, the right lung and the whole lung [2]	inflammatory pathology score (degree of alveolitis, grade 0 to 3) [3]	pathological changes in lung tissue (HE staining) [3]	levels of p-Smad2 and p-Smad3 proteins (grayscale value) [4]	intensities of the expression bands of p-Smad2 and p-Smad3 in lung tissue [4]	hydroxyproline content in lung tissue [5]	number of macrophages, heteromorphic nuclear cells and lymphocytes in bronchoalveolar lavage fluid [6]	gene expression levels of ctgf, collagen I and collagen III in lung tissue (TGF-β signaling pathway)	content of active TGF-β in the lung tissue (active TGF-β)	hydroxyproline content in lung tissue [7]
YRVRFLAKENVTQDAED [N2]	decreased significantly	almost returned to the level of the control group	decreased significantly	significant alleviation	a small amount of inflammatory cell infiltration in the interstitial	decreased significantly	almost returned to the level of the control group	decreased significantly	decreased significantly	–	–	–
(PEG2)TyrArgValArgPheLeuAlaLysGluAsnValThrGlnAspAlaGluAsp ([PEG2′]YRVRFLAKENVTQDAED; listed as Homo sapiens) [N3]	decreased significantly	almost returned to the level of the control group	decreased significantly	significant alleviation	a small amount of inflammatory cell infiltration in the interstitial	decreased significantly	almost returned to the level of the control group	decreased significantly	decreased significantly	–	–	–
RFLAKENVTQD [N4]	–	–	–	–	–	–	–	–	–	decreased significantly	decreased significantly	decreased significantly
